The values that follow come from publication PMC7806935, “Exosite inhibition of ADAMTS-5 by a glycoconjugated arylsulfonamide” (Scientific Reports, 2021).

In test [1] the target is T1, ADAMTS-4 (Homo sapiens, UniProt O75173).
T1 construct: made in house
T1 sequence (O75173 213-837): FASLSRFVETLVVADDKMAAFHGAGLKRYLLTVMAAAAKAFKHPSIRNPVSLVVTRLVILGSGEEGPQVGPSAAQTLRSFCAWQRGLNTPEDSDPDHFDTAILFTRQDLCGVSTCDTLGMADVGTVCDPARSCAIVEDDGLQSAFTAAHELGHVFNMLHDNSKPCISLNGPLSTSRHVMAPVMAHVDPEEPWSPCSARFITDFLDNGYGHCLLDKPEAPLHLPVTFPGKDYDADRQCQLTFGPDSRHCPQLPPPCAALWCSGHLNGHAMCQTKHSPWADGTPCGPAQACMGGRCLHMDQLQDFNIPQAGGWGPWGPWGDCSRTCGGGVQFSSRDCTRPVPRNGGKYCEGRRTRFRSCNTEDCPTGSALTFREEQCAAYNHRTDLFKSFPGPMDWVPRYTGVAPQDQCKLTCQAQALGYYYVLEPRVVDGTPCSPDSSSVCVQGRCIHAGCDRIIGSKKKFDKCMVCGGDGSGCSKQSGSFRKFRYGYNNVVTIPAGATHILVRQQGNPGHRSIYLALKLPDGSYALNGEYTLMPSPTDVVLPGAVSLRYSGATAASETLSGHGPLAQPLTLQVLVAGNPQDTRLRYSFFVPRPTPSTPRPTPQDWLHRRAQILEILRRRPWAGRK
Briefly: Versican digestion assay (V1-5GAG, sandwich ELISA), ADAMTS-4. It is filed as biochemical. The conditions noted are these: protein substrate V1-5GAG, mean ± SEM (n = 3). As to the method:
(§1) All enzyme assays were conducted in TNC-B buffer (50 mM Tris–HCl, pH 7.5, 150 mM NaCl, 10 mM CaCl2, and 0.02% NaN3) at 37 °C. To avoid the formation of inhibitor aggregates, the detergent Brij-35 (0.05%) was added to the assay buffer. No aggregation was visually observed at concentrations up to 2 mM. The inhibitor stock solutions in DMSO (10 mM) were diluted at different concentrations in assay buffer and incubated with ADAMTS-4 or ADAMTS-5 for 2 h at 37 °C. Percent of inhibition was calculated from control reactions containing only DMSO. IC50 values were determined using the formula: vi/v0 = 1/(1 + [I]/IC50) where vi is the initial velocity of substrate cleavage in the presence of the inhibitor at concentration [I] and v0 is the initial velocity in the presence of an equal concentration (v/v) of DMSO.
(§2) ADAMTS-5 full-length (FL) (final concentration 0.4 nM), ADAMTS-5 MDTCS (0.4 nM) ADAMTS-5 MD (26 nM) or ADAMTS-4 (5.5 nM) were incubated with different concentrations of inhibitors or DMSO for 2 h at 37 °C in TNC-B buffer before addition of V1-5GAG (50 nM). At different time points (0–20 min), sub-samples were removed and reactions were stopped with EDTA. Maxisorp plates (VWR, Lutterworth, UK) were coated with 5 μg/mL anti-DPEEAE neoepitope antibody (Cat n. PA1-1748A, Life Technologies, Paisley, UK) in carbonate buffer pH 9.6 (16 h, 4 °C). This neoepitope antibody specifically recognizes the N-terminal versican fragment versikine, generated when ADAMTS-5 cleaves versican at the Glu441↓442Ala bond. Washing steps were performed in triplicate with 300 μL phosphate buffered-saline (PBS) containing 0.1% Tween-20 between each step. Plates were blocked with 3% bovine serum albumin (BSA)/PBS for 2 h, at RT. The samples from the digestion experiments were diluted in 3% BSA/PBS and added to the plate (100 μL, 2 h, RT). Bound versikine fragments were detected using anti-G1 monoclonal antibody (Cat n. ab171887, Abcam, Cambridge, UK) (3 μg/mL in 0.5% BSA/PBS, 1.5 h, RT), followed by horseradish peroxidase (HRP)-conjugated anti-mouse antibodies (Cat. N. P044701-2, Agilent Technologies LTD, Cheadle, UK) (2.4 μg/mL, 1 h, RT). The assay was developed by addition of o-phenylenediamine dihydrochloride (OPD, Cat n. 34006, Sigma Aldrich, Gillingham, UK) for 10 min and reactions were stopped with 2 M H2SO4. The absorbance was measured at 492 nm using a BioTeK Epoch (BioTek, Swindon, UK) plate reader. For each dilution, the amount of neoepitope generated was derived from a standard curve (0–1.56 nM) of V1-5GAG completely digested with ADAMTS-5. Initial velocities were calculated from the concentration of versikine generated as a function of reaction time and IC50 values were determined.
(§3) For inhibition studies, initial rates of proteolysis (< 20% cleavage) were analyzed between 0 and 20 min. For determination of the specificity constants (kcat/Km), digestion reactions were allowed to occur to completion (0–2 h). Data were analyzed as previously described.

Test [2] concerns the target T2, ADAMTS-5 (Homo sapiens, UniProt Q9UNA0).
T2 construct: made in house
T2 sequence (Q9UNA0 262-930): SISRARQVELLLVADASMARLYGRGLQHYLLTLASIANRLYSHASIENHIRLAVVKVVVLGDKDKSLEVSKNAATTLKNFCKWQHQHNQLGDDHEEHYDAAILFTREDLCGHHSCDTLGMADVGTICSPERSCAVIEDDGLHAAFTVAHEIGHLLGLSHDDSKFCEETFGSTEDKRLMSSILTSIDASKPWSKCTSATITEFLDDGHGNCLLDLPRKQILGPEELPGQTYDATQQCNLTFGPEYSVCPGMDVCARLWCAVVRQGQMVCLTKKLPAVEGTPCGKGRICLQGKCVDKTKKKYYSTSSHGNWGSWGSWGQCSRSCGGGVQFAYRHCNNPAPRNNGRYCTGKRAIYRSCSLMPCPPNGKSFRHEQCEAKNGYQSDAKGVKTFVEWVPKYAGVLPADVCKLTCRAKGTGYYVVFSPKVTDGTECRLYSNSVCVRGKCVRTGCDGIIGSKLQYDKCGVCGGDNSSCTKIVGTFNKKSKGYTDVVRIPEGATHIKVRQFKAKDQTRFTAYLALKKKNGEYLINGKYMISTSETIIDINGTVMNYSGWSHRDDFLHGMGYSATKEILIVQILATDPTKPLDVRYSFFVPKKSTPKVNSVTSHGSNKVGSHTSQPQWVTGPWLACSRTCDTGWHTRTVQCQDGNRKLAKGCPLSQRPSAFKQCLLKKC
Briefly: Versican digestion assay (V1-5GAG, sandwich ELISA), ADAMTS-5. It is filed as biochemical. The conditions noted are these: for IC50: protein substrate V1-5GAG, mean ± SEM (n = 3). As to the method:
as §1, §2, §3
(ELISA stands for enzyme-linked immunosorbent assay.)

Test [3] concerns the target T2, ADAMTS-5. Briefly: QF peptide cleavage assay, ADAMTS-5. It is filed as biochemical. The conditions noted are these: 12-residue QF peptide substrate; mean ± SEM (n = 3); read-out: IC50 (μM) QF peptide ATS5. As to the method:
as §1
(§4) QF peptide cleavage assays were conducted in 96-well black microtiter plates (Scientific Laboratories Supplies Ltd, Wilford, UK) using a Fluostar Omega microplate reader (BMG Labtech, Aylesbury, UK). The activity of ADAMTS-4 (1 nM) and -5 (5 nM) was monitored for 2 h using the fluorescent peptide substrates fluorescein 5(6)-carbonyl-Ala-Glu-Leu-[…]-Gly-Arg-Pro-Ile-Ser-Ile-Ala-Lys-N,N,N0,N0-tetramethyl-6-carboxyrhodamine-NH2 (FAM-AE ~ LQGRPISIAK-TAMRA, ADAMTS-4) and fluorescein 5(6)-carbonyl-Thr-Glu-Ser-Glu ~ Ser-Arg-Gly-Ala-Ile-Tyr-Lys-Lys-N,N,N0,N0-tetramethyl-6-carboxyrhodamine-NH2 (FAM-TESE ~ SRGAIYKK-TAMRA, ADAMTS-5) (custom-synthesized by Bachem, Bubendorf, Switzerland) with an excitation wavelength of 485 nm and an emission wavelength of 538 nm. Final substrate concentrations were 1 μM and 40 μM for ADAMTS-4 and -5, respectively. Fluorescence was expressed in relative fluorescence units (RFU) and normalized against a blank containing only buffer and substrate. Emission spectra were recorded at several concentrations of each compound to exclude auto-fluorescence and maximal inhibitor concentrations were selected accordingly.

The target in test [4] is T1, ADAMTS-4. Briefly: QF peptide cleavage assay, ADAMTS-4. It is filed as biochemical. Particulars: 12-residue QF peptide substrate; mean ± SEM (n = 3); read-out: IC50 (μM) QF peptide ATS4. As for the experimental part:
as §1, §4

The target in test [5] is V1-5GAG, a truncated versican V1 variant (UniProt P13611).
Where [6] appears, read: read-out: IC50 (μM) V1-5GAG ATS4.
The mark [7] stands for this setting: read-out: IC50 (μM) V1-5GAG ATS5.

What is called IC50 is the concentration at which inhibition is half-maximal. As for `CCC(C)N(Cc1cn(C2OC(CO)C(O)C(O)C2NC(C)=O)nn1)S(=O)(=O)c1ccc(-c2ccccc2)cc1` (mixture of isomers) [Compound 3b], the 50% inhibitory concentration (IC50) at ADAMTS-4 [1] (read-out: IC50 (μM) ADAMTS-4) was found to be 50 ± 16 µM; at ADAMTS-5 [2] (read-out: IC50 (μM) ADAMTS-5), 120 ± 20 µM. For the same compound, the “reduction in inhibition of ADAMTS-5 versicanase activity” value on ADAMTS-5 [2] (sugar directly linked to the sulfonamide scaffold, compared with n-propyloxy link) is given as ~ 13 fold.
`CCC(C)N(Cc1cn(CCCOC2OC(CO)C(O)C(O)C2NC(C)=O)nn1)S(=O)(=O)c1ccc(OCc2ccc(F)cc2Cl)cc1` (mixture of isomers) [Compound 4c]: the IC50 on ADAMTS-5 [3] was 57 ± 10 µM; on ADAMTS-4 [1] (setting [6]), 90 ± 44 µM; on ADAMTS-4 [4], > 50 µM; at ADAMTS-5 [2] (setting [7]) it was 62 ± 12 µM. Moreover, at ADAMTS-5 [2] (benzyloxyphenyl compound compared to 4b), the “reduction in inhibitory properties” value turned out to be 6 fold.
For `CCC(C)N(Cc1cn(CCCOC2OC(CO)C(O)C(O)C2NC(C)=O)nn1)S(=O)(=O)c1ccc(OCc2ccccc2)cc1` (mixture of isomers) [Compound 4d], the IC50 was > 50 µM at ADAMTS-5 [3], 180 ± 50 µM on ADAMTS-4 [1] (setting [6]), > 50 µM on ADAMTS-4 [4] and 90 ± 23 µM at ADAMTS-5 [2] (setting [7]).
For `CC(=O)N[C@@H]1[C@@H](O)[C@H](O)[C@@H](CO)O[C@H]1n1cc(CN([C@@H](C(=O)OCc2ccccc2)C(C)C)S(=O)(=O)c2ccc(-c3ccccc3)cc2)nn1` [Compound 3a], the IC50 on ADAMTS-4 [1] (read-out: IC50 (μM) ADAMTS-4) and at ADAMTS-5 [2] (read-out: IC50 (μM) ADAMTS-5) was > 50 µM each time.
Take `CC(=O)N[C@H]1[C@H](OCCCn2cc(CN([C@@H](C(=O)OCc3ccccc3)C(C)C)S(=O)(=O)c3ccc(-c4ccccc4)cc3)nn2)O[C@H](CO)[C@@H](O)[C@@H]1O` [Compound 4a]: the IC50 on ADAMTS-4 [1] (read-out: IC50 (μM) ADAMTS-4) and at ADAMTS-5 [2] (read-out: IC50 (μM) ADAMTS-5) was > 50 µM each time.
As to “ADAMTS-5 MDTCS (lacking the C-terminal TS motif) (enzyme)”, the kcat/Km for proteolysis of V1-5GAG (time course at 50 nM substrate, versikine by sandwich ELISA) in test [5] was found to be 3.23e+06 M⁻¹ s⁻¹.
The same measure, in the same setting: the result for ADAMTS-5 MDTCS K532A/K533A (enzyme) reads 675000 M⁻¹ s⁻¹.
With ADAMTS-5 MDTCS K532Q/K533Q (enzyme), the kcat/Km for proteolysis of V1-5GAG (time course at 50 nM substrate, versikine by sandwich ELISA) in test [5] was 401000 M⁻¹ s⁻¹.
On the same count and under the same terms, then ADAMTS-5 MDTCS K533A (enzyme), with 1.25e+06 M⁻¹ s⁻¹; and ADAMTS-5 MDTCS K533H (enzyme), with 1.56e+06 M⁻¹ s⁻¹.
